Source: patent US20260001871A1, “TRIAZOLE DERIVATIVES AS MODULATORS OF MAS-RELATED G-PROTEIN RECEPTOR D” (ESCIENT PHARMACEUTICALS, INC., priority 2022, published 2026)

Target: human MRGPRD (Homo sapiens, UniProt Q8TDS7)
Assay: MRGPRD antagonist activity, IP-One HTRF assay in CHO cells stably expressing human MRGPRD (versus 100 μM β-Alanine agonist)
Type: cell-based
Outline: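 CHO cells stably expressing human MRGPRD, plated overnight at 37 °C, were treated with antagonist plus agonist in Tris-HCl/NaCl/LiCl buffer pH 8, incubated 1 h at 37 °C then 1 h at room temperature. IP-1 accumulation read by HTRF; IC50 and percent antagonism of maximum efficacy averaged, SEM reported.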

human MRGPRD, sequence (Q8TDS7 whole entry): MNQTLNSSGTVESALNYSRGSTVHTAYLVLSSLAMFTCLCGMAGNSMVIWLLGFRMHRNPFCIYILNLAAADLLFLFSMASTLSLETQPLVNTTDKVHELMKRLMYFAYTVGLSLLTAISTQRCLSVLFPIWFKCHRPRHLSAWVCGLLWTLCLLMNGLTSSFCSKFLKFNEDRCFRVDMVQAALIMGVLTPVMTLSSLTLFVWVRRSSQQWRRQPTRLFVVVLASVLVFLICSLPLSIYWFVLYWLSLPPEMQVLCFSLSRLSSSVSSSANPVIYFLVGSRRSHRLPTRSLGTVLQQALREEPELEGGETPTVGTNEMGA

Row | Compound | IC50 [nM]
1 | CC(NC(=O)c1nnn(-c2ccc(-c3ccccc3)cc2)c1C1CC1)c1ccc(S(C)(=O)=O)cc1 (centres unmarked) [Compound 14-47] | 1000 to 3000
2 | O=C(Nc1ccnc(N2CCOCC2)c1)c1nnn(-c2ccc(-c3ccccc3)cc2)c1C1CC1 [Compound 14-48] | 1000 to 3000
3 | CC(NC(=O)c1nnn(-c2ccc(-c3ccccc3)cc2)c1C1CC1)c1cccnc1 (centres unmarked) [Compound 14-49] | 1000 to 3000
4 | COc1cc(NC(=O)c2nnn(-c3ccc(-c4ccccc4)cc3)c2C2CC2)ccn1 [Compound 14-50] | 1000 to 3000
5 | Cc1nn(C)c2ccnc(NC(=O)c3nnn(-c4ccc(-c5ccccc5)cc4)c3C3CC3)c12 [Compound 14-51] | 1000 to 3000
6 | O=C(Nc1ccnc(C(F)(F)F)c1)c1nnn(-c2ccc(-c3ccccc3)cc2)c1C1CC1 [Compound 14-52] | 1000 to 3000
7 | O=C(Nc1ncnc2[nH]ncc12)c1nnn(-c2ccc(-c3ccccc3)cc2)c1C1CC1 [Compound 14-53] | 1000 to 3000
8 | O=C(Nc1c(F)cccc1F)c1nnn(-c2ccc(-c3ccccc3)cc2)c1C1CC1 [Compound 14-54] | 1000 to 3000
9 | Cc1cc(CNC(=O)c2nnn(-c3ccc(-c4ccccc4)cc3)c2C2CC2)nn1C [Compound 14-55] | 1000 to 3000
10 | O=C(NC1CC(F)(F)C1)c1nnn(-c2ccc(-c3ccccc3)cc2)c1C1CC1 [Compound 14-56] | 1000 to 3000
11 | O=C(N[C@H]1CCc2ccccc21)c1nnn(-c2ccc(-c3ccccc3)cc2)c1C1CC1 [Compound 14-57] | 1000 to 3000
12 | Cc1cc(NC(=O)c2nnn(-c3ccc(-c4ccccc4)cc3)c2C2CC2)ccc1F [Compound 14-58] | 1000 to 3000
13 | COc1ccc2[nH]cc(CC(C)NC(=O)c3nnn(-c4ccc(-c5ccccc5)cc4)c3C3CC3)c2c1 (centres unmarked) [Compound 14-59] | 1000 to 3000
14 | O=C(Nc1cncc2[nH]ncc12)c1nnn(-c2ccc(-c3ccccc3)cc2)c1C1CC1 [Compound 14-60] | 1000 to 3000
15 | Cc1n[nH]c2cccc(NC(=O)c3nnn(-c4ccc(-c5ccccc5)cc4)c3C3CC3)c12 [Compound 14-61] | 1000 to 3000
16 | COc1cccc(C)c1NC(=O)c1nnn(-c2ccc(-c3ccccc3)cc2)c1C1CC1 [Compound 14-62] | 1000 to 3000
17 | Cn1ncc2c(NC(=O)c3nnn(-c4ccc(-c5ccccc5)cc4)c3C3CC3)cccc21 [Compound 14-63] | 1000 to 3000
18 | Cc1c(C(C)NC(=O)c2nnn(-c3ccc(-c4ccccc4)cc3)c2C2CC2)cnn1C (centres unmarked) [Compound 14-64] | 1000 to 3000
19 | O=C(Nc1cccc2nccn12)c1nnn(-c2ccc(-c3ccccc3)cc2)c1C1CC1 [Compound 14-65] | 1000 to 3000
20 | Cc1cn2c(NC(=O)c3nnn(-c4ccc(-c5ccccc5)cc4)c3C3CC3)cccc2n1 [Compound 14-66] | 1000 to 3000

Row | Compound | IC50 [nM]
21 | O=C(NCCc1cccs1)c1nnn(-c2ccc(-c3ccccc3)cc2)c1C1CC1 [Compound 14-67] | 1000 to 3000
22 | O=C(N[C@H]1CCC[C@@H](O)C1)c1nnn(-c2ccc(-c3ccccc3)cc2)c1C1CC1 [Compound 14-68] | 1000 to 3000
23 | Cn1cc(C2(NC(=O)c3nnn(-c4ccc(-c5ccccc5)cc4)c3C3CC3)CC2)cn1 [Compound 14-69] | 1000 to 3000
24 | Cn1ncc2c1CCC2NC(=O)c1nnn(-c2ccc(-c3ccccc3)cc2)c1C1CC1 (centres unmarked) [Compound 14-70] | 1000 to 3000
25 | Cc1c(NC(=O)c2nnn(-c3ccc(-c4ccccc4)cc3)c2C2CC2)nn(C)c1C [Compound 14-71] | > 3000
26 | Cn1cc(NC(=O)c2nnn(-c3ccc(-c4ccccc4)cc3)c2C2CC2)cn1 [Compound 14-72] | > 3000
27 | CC(C)n1cc(NC(=O)c2nnn(-c3ccc(-c4ccccc4)cc3)c2C2CC2)cn1 [Compound 14-73] | > 3000
28 | CC1(NC(=O)c2nnn(-c3ccc(-c4ccccc4)cc3)c2C2CC2)CCOCC1 [Compound 14-74] | > 3000
29 | CC(NC(=O)c1nnn(-c2ccc(-c3ccccc3)cc2)c1C1CC1)c1cnn(C)c1 (centres unmarked) [Compound 14-75] | > 3000
30 | CN(Cc1ccc(N2CCOCC2)cc1)C(=O)c1nnn(-c2ccc(-c3ccccc3)cc2)c1C1CC1 [Compound 14-76] | > 3000
31 | CS(=O)(=O)Nc1cccc(NC(=O)c2nnn(-c3ccc(-c4ccccc4)cc3)c2C2CC2)c1 [Compound 14-77] | > 3000
32 | CCn1cc(NC(=O)c2nnn(-c3ccc(-c4ccccc4)cc3)c2C2CC2)c(C#N)n1 [Compound 14-78] | > 3000
33 | Cn1ncc2c(NC(=O)c3nnn(-c4ccc(-c5ccccc5)cc4)c3C3CC3)ncnc21 [Compound 14-79] | > 3000
34 | O=C(Nc1cnn(C(F)(F)F)c1)c1nnn(-c2ccc(-c3ccccc3)cc2)c1C1CC1 [Compound 14-80] | > 3000
35 | CC(C)C(NC(=O)c1nnn(-c2ccc(-c3ccccc3)cc2)c1C1CC1)c1cn[nH]c1 (centres unmarked) [Compound 14-81] | > 3000
36 | O=C(N[C@H]1CCC[C@@H]1O)c1nnn(-c2ccc(-c3ccccc3)cc2)c1C1CC1 [Compound 14-82] | > 3000
37 | COCC1(NC(=O)c2nnn(-c3ccc(-c4ccccc4)cc3)c2C2CC2)CCCC1 [Compound 14-83] | > 3000
38 | COc1cc(NC(=O)c2nnn(-c3ccc(-c4ccccc4)cc3)c2C2CC2)c2cn[nH]c2c1 [Compound 14-84] | > 3000
39 | Cn1cc(C(C)(C)NC(=O)c2nnn(-c3ccc(-c4ccccc4)cc3)c2C2CC2)cn1 [Compound 14-85] | > 3000
40 | C[C@H](NC(=O)c1nnn(-c2ccc(-c3ccccc3)cc2)c1C1CC1)c1ccccc1 [Compound 14-86] | > 3000

Second part, the molecule after the results:

Row | IC50 [nM] | Compound
41 | > 3000 | O=C(Nc1cnn(C2CC2)c1)c1nnn(-c2ccc(-c3ccccc3)cc2)c1C1CC1 [Compound 14-87]
42 | 1000 to 3000 | CC(=O)c1cc(NC(=O)c2nnn(-c3ccc(-c4ccccc4)cc3)c2C2CC2)ccn1 [Compound 14-88]
43 | < 100 | Cc1cc(NC(=O)c2nnn(-c3ccc(-c4ccc(CC#N)cc4)cc3)c2C2CC2)ccn1 [Compound 15-1]
44 | 100 to 500 | Cc1cc(NC(=O)c2nnn(-c3ccc(-c4ccc(C#N)c(F)c4)cc3)c2C2CC2)ccn1 [Compound 15-2]
45 | 500 to 1000 | Cc1ccc(CNC(=O)c2nnn(-c3ccc(-c4ccc(C#N)cc4)cc3)c2C2CC2)cn1 [Compound 15-3]
46 | 500 to 1000 | Cc1nn(C)c(C)c1-c1ccc(-n2nnc(C(=O)NC(C)c3cnn(C)c3)c2C2CC2)cc1 (centres unmarked) [Compound 15-4, 5-cyclopropyl-N-(1-(1-methyl-1H-pyrazol-4-yl)ethyl)-1-(4-(1,3,5-trimethyl-1H-pyrazol-4-yl)phenyl)-1H-1,2,3-triazole-4-carboxamide]
47 | 500 to 1000 | Cn1c(CNC(=O)c2nnn(-c3ccc(-c4ccc(C#N)cc4)cc3)c2C2CC2)nc2ccccc21 [Compound 15-5]
48 | 1000 to 3000 | Cn1c(CNC(=O)c2nnn(-c3ccc(-c4ccc(CC#N)cc4)cc3)c2C2CC2)nc2ccccc21 [Compound 15-6]
49 | 1000 to 3000 | CC(NC(=O)c1nnn(-c2ccc(-c3ccc(C#N)c(F)c3)cc2)c1C1CC1)c1ccn(C)n1 (centres unmarked) [Compound 15-7]
50 | 1000 to 3000 | CC(NC(=O)c1nnn(-c2ccc(-c3ccc(C#N)cc3)cc2)c1C1CC1)c1cnn(C)c1 (centres unmarked) [Compound 15-8]
51 | > 3000 | CC(NC(=O)c1nnn(-c2ccc(-c3ccc(CC#N)cc3)cc2)c1C1CC1)c1cnn(C)c1 (centres unmarked) [Compound 15-9]
52 | > 3000 | CC(NC(=O)c1nnn(-c2ccc(-c3ccc(C#N)cc3)cc2)c1C1CC1)c1ccn(C)n1 (centres unmarked) [Compound 15-10]
53 | 100 to 500 | Cc1ncccc1CNC(=O)c1nnn(-c2ccc(-c3c(C)nn(C)c3C)cc2)c1C1CC1 [Compound 15-11]
54 | 100 to 500 | Cc1ccc(CNC(=O)c2nnn(-c3ccc(-c4c(C)nn(C)c4C)cc3)c2C2CC2)cn1 [Compound 15-12]
55 | 500 to 1000 | Cc1nn(C)c(C)c1-c1ccc(-n2nnc(C(=O)NC(C)(C)c3cccnc3)c2C2CC2)cc1 [Compound 15-13]
56 | 100 to 500 | COc1ccc(-c2ccc(-n3nnc(C(=O)Nc4ccnc(C)c4)c3C3CC3)cc2)cn1 [Compound 15-14]

Row | IC50 [nM] | Compound
57 | 1000 to 3000 | CCn1cc(CNC(=O)c2nnn(-c3ccc(-c4cccc(C#N)c4)cc3)c2C2CC2)cn1 [Compound 15-15]
58 | 1000 to 3000 | Cc1ccc(C2(NC(=O)c3nnn(-c4ccc(-c5c(C)nn(C)c5C)cc4)c3C3CC3)CC2)cn1 [Compound 15-17]
59 | 1000 to 3000 | CCc1ncccc1C1(NC(=O)c2nnn(-c3ccc(-c4ccc(C#N)cc4)cc3)c2C2CC2)CC1 [Compound 15-18]
60 | 100 to 500 | CCn1cc(CNC(=O)c2nnn(-c3ccc(-c4c(C)nn(C)c4C)cc3)c2C2CC2)cn1 [Compound 15-19]
61 | 100 to 500 | Cc1cc(NC(=O)c2nnn(-c3ccc(-c4ccc(C(F)F)nc4)cc3)c2C2CC2)ccn1 [Compound 15-20]
62 | 500 to 1000 | COCc1ccc(-c2ccc(-n3nnc(C(=O)Nc4ccnc(C)c4)c3C3CC3)cc2)cn1 [Compound 15-21]
63 | < 100 | Cc1ccc(CNC(=O)c2nnn(-c3ccc(-c4c(C)nn(-c5ccccc5)c4C)cc3)c2C2CC2)cn1 [Compound 15-22]
64 | 100 to 500 | CCc1ccc(-c2ccc(-n3nnc(C(=O)Nc4ccnc(C)c4)c3C3CC3)cc2)cn1 [Compound 15-23]
65 | 100 to 500 | Cc1cc(NC(=O)c2nnn(-c3ccc(-c4ccc(CC#N)nc4)cc3)c2C2CC2)ccn1 [Compound 15-24]
66 | < 100 | Cc1ncccc1CNC(=O)c1nnn(-c2ccc(-c3ccc(C#N)c(F)c3)cc2)c1C1CC1 [Compound 16-1, 1-(4′-cyano-3′-fluoro-[1,1′-biphenyl]-4-yl)-5-cyclopropyl-N-((2-methylpyridin-3-yl)methyl)-1H-1,2,3-triazole-4-carboxamide]
67 | 100 to 500 | Cc1ncccc1CNC(=O)c1nnn(-c2ccc(-c3ccc(CC#N)cc3)cc2)c1C1CC1 [Compound 16-2]
68 | 100 to 500 | Cc1ncccc1CNC(=O)c1nnn(-c2ccc(-c3cccc(CC#N)c3)cc2)c1C1CC1 [Compound 16-3]
69 | 100 to 500 | CCn1cc(CNC(=O)c2nnn(-c3ccc(-c4ccc(C#N)c(F)c4)cc3)c2C2CC2)cn1 [Compound 16-4]
70 | 100 to 500 | CCn1cc(CNC(=O)c2nnn(-c3ccc(-c4cccc(CC#N)c4)cc3)c2C2CC2)cn1 [Compound 16-5]
71 | 100 to 500 | Cc1ccc(CNC(=O)c2nnn(-c3ccc(-c4c(C)nn5ccccc45)cc3)c2C2CC2)cn1 [Compound 17-1]
